In patent publication US20200022370A1, “MICROBIOCIDAL OXADIAZOLE DERIVATIVES” (SYNGENTA PARTICIPATIONS AG, priority 2016, published 2020):

Key:
Phakopsora pachyrhizi = Phakopsora pachyrhizi / soybean / leaf disc preventative (Asian soybean rust); type: in vivo; details: foliar, 200 ppm in the applied formulation, soybean leaf disks, inoculated one day after application, vs untreated, 12 to 14 days after application, read-out: disease control
How it was run: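 Soybean leaf discs on water agar sprayed with formulated compound diluted in water, then inoculated one day later with spore suspension on the lower surface. Held 24-36 h dark at 20 °C, 75% rh, then 12 h light/day; percent disease control versus untreated scored 12-14 days after application.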

Uromyces viciae-fabae = Uromyces viciae-fabae / field bean / leaf disc preventative (faba-bean rust); type: in vivo; details: foliar, 288 h, 100 ppm in the applied formulation, field bean leaf discs, inoculated two hours after application, vs untreated, 12 days after application, read-out: disease control
Procedure: Leaf disks or leaf segments of various plant species are cut from plants grown in a greenhouse. The cut leaf disks or segments are placed in multiwell plates (24-well format) onto water agar. The leaf disks are sprayed with a test solution before (preventative) or after (curative) inoculation. Compounds to be tested are prepared as DMSO solutions (max. 10 mg/ml) which are diluted to the appropriate concentration with 0.025% Tween20 just before spraying. The inoculated leaf disks or segments are incubated under defined conditions (temperature, relative humidity, light, etc.) according to the respective test system. A single evaluation of disease level is carried out 3 to 14 days after inoculation, depending on the pathosystem. Percent disease control relative to the untreated check leaf disks or segments is then calculated.
Example 5: Fungicidal Activity Against Uromyces viciae-fabael Field Bean/Leaf Disc Preventative (Faba-Bean Rust)
Field bean leaf discs are placed on water agar in multiwell plates (96-well format) and 10 μl of the Formulated test compound diluted in acetone and a spreader pipetted onto the leaf disc. Two hours after application leaf discs are inoculated by spraying a spore suspension on the lower leaf surface. The leaf discs are incubated in a climate cabinet at 22° C. with 18 hour day and 70% relative humidity. The activity of a compound is assessed as percent disease control compared to untreated when an appropriate level of disease damage appears in untreated check leaf disks (12 days after application).
The following compounds at 100 ppm in the applied Formulation give at least 80% disease control in this test when compared to untreated control leaf discs under the same conditions, which show extensive disease development.

[1] = system: Glomerella lacenarium (Colletotrichum lacenarium); assay: Glomerella lacenarium (Colletotrichum lacenarium) liquid culture / cucumber / preventative (anthracnose); type: cell-based; details: 20 ppm, liquid culture in PDB, 24° C., inhibition of growth measured photometrically 3 to 4 days after application, vs untreated, read-out: disease control
How it was run: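 Cryopreserved conidia in potato dextrose broth were added to test compound in a 96-well microtiter plate and incubated at 24 °C. Growth inhibition read photometrically 3–4 days after application, as percent activity versus untreated check.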

[2] = system: Puccinia recondita f. Sp. Tritici; assay: Puccinia recondita f. sp. tritici / wheat / leaf disc preventative (brown rust); type: in vivo; details: foliar, 200 ppm in the applied formulation, wheat leaf segments cv. Kanzler, inoculated 1 day after application, vs untreated, 7 to 9 days after application, read-out: disease control
How it was run: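 Segments of cv. Kanzler wheat on agar received a spray of compound formulation diluted in water and were inoculated with spores one day afterwards. Kept at 19° C and 75% rh under 12 h/12 h light; disease control relative to untreated checks rated at 7–9 days post-application.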

Row | SMILES | pest or weed control at 200 ppm (Phakopsora pachyrhizi) | pest or weed control at 100 ppm (Uromyces viciae-fabae) | inhibition of growth at 20 ppm [1] | pest or weed control at 200 ppm [2]
1 | O=C(Nc1ccc(-c2noc(C(F)(F)F)n2)cc1)c1cncc(N2CCOCC2)n1 [Compound 1.2, 6-morpholino-N-[4-[5-(trifluoromethyl)-1,2,4-oxadiazol-3-yl]phenyl]pyrazine-2-carboxamide] | ≥ 80% | ≥ 80% |  | 
2 | CC12CCC(C(=O)Nc3ccc(-c4noc(C(F)(F)F)n4)cc3)(OC1=O)C2(C)C (centres unmarked) [Compound 1.4, 1,7,7-trimethyl-2-oxo-N-[4-[5-(trifluoromethyl)-1,2,4-oxadiazol-3-yl]phenyl]-3-oxabicyclo[2.2.1] heptane-4-carboxamide] | ≥ 80% | ≥ 80% | ≥ 80% | 
3 | COc1cc(C(=O)Nc2ccc(-c3noc(C(F)(F)F)n3)cc2)cc(OC)c1OC [Compound 1.6, 3,4,5-trimethoxy-N-[4-[5-(trifluoromethyl)-1,2,4-oxadiazol-3-yl]phenyl]benzamide] | ≥ 80% | ≥ 80% |  | ≥ 80%
4 | CS(=O)(=O)CC(=O)Nc1ccc(-c2noc(C(F)(F)F)n2)cc1 [Compound 1.10, 2-methylsulfonyl-N-[4-[5-(trifluoromethyl)-1,2,4-oxadiazol-3-yl]phenyl]acetamide] |  | ≥ 80% | ≥ 80% | 
5 | COc1cc(CCC(=O)Nc2ccc(-c3noc(C(F)(F)F)n3)cc2)cc(OC)c1OC [Compound 1.13, N-[4-[5-(trifluoromethyl)-1,2,4-oxadiazol-3-yl]phenyl]-3-(3,4,5-trimethoxyphenyl) propanamide] |  | ≥ 80% | ≥ 80% | ≥ 80%
6 | N#Cc1cc(F)c(C(=O)Nc2ccc(-c3noc(C(F)(F)F)n3)cc2)c(F)c1 [Compound 1.15, 4-cyano-2,6-difluoro-N-[4-[5-(trifluoromethyl)-1,2,4-oxadiazol-3-yl]phenyl]benzamide] |  | ≥ 80% | ≥ 80% | 
7 | O=C(Nc1ccc(-c2noc(C(F)(F)F)n2)cc1)C(F)c1ccccc1 (centres unmarked) [Compound 1.16, 2-fluoro-2-phenyl-N-[4-[5-(trifluoromethyl)-1,2,4-oxadiazol-3-yl]phenyl]acetamide] | ≥ 80% | ≥ 80% | ≥ 80% | ≥ 80%
8 | O=C(CCC(F)(F)F)Nc1ccc(-c2noc(C(F)(F)F)n2)cc1 [Compound 1.20, 4,4,4-trifluoro-N-[4-[5-(trifluoromethyl)-1,2,4-oxadiazol-3-yl]phenyl]butanamide] | ≥ 80% | ≥ 80% | ≥ 80% | ≥ 80%
9 | O=C(Cn1cncn1)Nc1ccc(-c2noc(C(F)(F)F)n2)cc1 [Compound 1.23, 2-(1,2,4-triazol-1-yl)-N-[4-[5-(trifluoromethyl)-1,2,4-oxadiazol-3-yl]phenyl]acetamide] |  | ≥ 80% | ≥ 80% | ≥ 80%
10 | CC(C)NC(=O)c1c(F)cccc1C(=O)Nc1ccc(-c2noc(C(F)(F)F)n2)cc1 [Compound 1.29, 3-fluoro-N2-isopropyl-N1-[4-[5-(trifluoromethyl)-1,2,4-oxadiazol-3-yl]phenyl] phthalamide] | ≥ 80% | ≥ 80% | ≥ 80% | ≥ 80%
11 | CC(C)C(NC(=O)OC(C)(C)C)C1=NOC(C(=O)Nc2ccc(-c3noc(C(F)(F)F)n3)cc2)C1 (centres unmarked) [Compound 1.30, tert-butyl N-[2-methyl-1-[5-[[4-[5-(trifluoromethyl)-1,2,4-oxadiazol-3-yl]phenyl]carbamoyl]-4,5-dihydroisoxazol-3-yl]propyl]carbamate] |  | ≥ 80% |  | 
12 | CC(C)(C(=O)Nc1ccc(-c2noc(C(F)(F)F)n2)cc1)c1ncc(Cl)cc1Cl [Compound 1.32, 2-(3,5-dichloro-2-pyridyl)-2-methyl-N-[4-[5-(trifluoromethyl)-1,2,4-oxadiazol-3-yl]phenyl] propanamide] |  | ≥ 80% |  | ≥ 80%
13 | Cn1nc(C(C)(C)C)cc1C(=O)Nc1cccc(C(=O)Nc2ccc(-c3noc(C(F)(F)F)n3)cc2)c1 [Compound 1.33, 5-tert-butyl-2-methyl-N-[3-[[4-[5-(trifluoromethyl)-1,2,4-oxadiazol-3-yl]phenyl]carbamoyl]phenyl]pyrazole-3-carboxamide] |  | ≥ 80% |  | 
14 | O=C(Nc1ccc(-c2noc(C(F)(F)F)n2)cc1)c1cc(F)cc2nnsc12 [Compound 1.34, 5-fluoro-N-[4-[5-(trifluoromethyl)-1,2,4-oxadiazol-3-yl]phenyl]-1,2,3-benzothiadiazole-7-carboxamide] |  | ≥ 80% |  | 
15 | O=C(COc1ccc(Oc2cccc(F)c2)cc1)Nc1ccc(-c2noc(C(F)(F)F)n2)cc1 [Compound 1.35, 2-[4-(3-fluorophenoxy)phenoxy]-N-[4-[5-(trifluoromethyl)-1,2,4-oxadiazol-3-yl]phenyl]acetamide] |  | ≥ 80% |  | 
16 | Cc1sc(Nc2ccccc2)nc1C(=O)Nc1ccc(-c2noc(C(F)(F)F)n2)cc1 [Compound 1.37, 2-anilino-5-methyl-N-[4-[5-(trifluoromethyl)-1,2,4-oxadiazol-3-yl]phenyl]thiazole-4-carboxamide] |  | ≥ 80% |  | 
17 | O=C(Nc1ccc(-c2noc(C(F)(F)F)n2)cc1)c1cccc(OCc2ccccc2)c1 [Compound 1.38, 3-benzyloxy-N-[4-[5-(trifluoromethyl)-1,2,4-oxadiazol-3-yl]phenyl]benzamide] |  | ≥ 80% |  | 
18 | CC1Cc2c(Br)ccc(C(=O)Nc3ccc(-c4noc(C(F)(F)F)n4)cc3)c2S1(=O)=O (centres unmarked) [Compound 1.39, 4-bromo-2-methyl-1,1-dioxo-N-[4-[5-(trifluoromethyl)-1,2,4-oxadiazol-3-yl]phenyl]-2,3-dihydrobenzo-thiophene-7-carboxamide] |  | ≥ 80% | ≥ 80% | 
19 | O=C(Nc1ccc(-c2noc(C(F)(F)F)n2)cc1)C(F)(F)c1ccc(Br)cc1 [Compound 1.40, 2-(4-bromophenyl)-2,2-difluoro-N-[4-[5-(trifluoromethyl)-1,2,4-oxadiazol-3-yl]phenyl]acetamide] |  | ≥ 80% |  | 
20 | O=C(Nc1ccc(-c2noc(C(F)(F)F)n2)cc1)c1ccc(-n2ccnc2)cc1 [Compound 1.42, 4-imidazol-1-yl-N-[4-[5-(trifluoromethyl)-1,2,4-oxadiazol-3-yl]phenyl]benzamide] |  | ≥ 80% |  | 
21 | O=C(Nc1ccc(-c2noc(C(F)(F)F)n2)cc1)c1cc(Br)nn1-c1ncccc1Cl [Compound 1.43, 5-bromo-2-(3-chloro-2-pyridyl)-N-[4-[5-(trifluoromethyl)-1,2,4-oxadiazol-3-yl]phenyl]pyrazole-3-carboxamide] |  | ≥ 80% |  | 
22 | CCC(=O)N(CC(=O)NC(C)(C)C)c1ccc(-c2noc(C(F)(F)F)n2)cc1 [Compound 1.57, N-[2-(tert-butylamino)-2-oxo-ethyl]-N-[4-[5-(trifluoromethyl)-1,2,4-oxadiazol-3-yl]phenyl] propanamide] |  | ≥ 80% | ≥ 80% | ≥ 80%
23 | COCC(=O)N(CC(=O)NC(C)(C)C)c1ccc(-c2noc(C(F)(F)F)n2)cc1 [Compound 1.58, N-tert-butyl-2-[N-(2-methoxyacetyl)-4-[5-(trifluoromethyl)-1,2,4-oxadiazol-3-yl]anilino]acetamide] |  | ≥ 80% |  | ≥ 80%
24 | CC(=O)N(c1ccc(-c2noc(C(F)(F)F)n2)cc1)C(C)C(=O)NC(C)(C)C (centres unmarked) [Compound 1.59, 2-[N-acetyl-4-[5-(trifiuoromethyl)-1,2,4-oxadiazol-3-yl]anilino]-N-tert-butyl-propanamide] |  | ≥ 80% |  | 
25 | CC(=O)N(c1ccc(-c2noc(C(F)(F)F)n2)cc1)C(C)(C)C(=O)NC(C)(C)C [Compound 1.61, 2-[N-acetyl-4-[5-(trifluoromethyl)-1,2,4-oxadiazol-3-yl]anilino]-N-tert-butyl-2-methyl-propanamide] |  | ≥ 80% |  | 
